# Experimental data: publication PMC9945177, “Nature-Derived Epoxy Resin Monomers with Reduced Sensitizing Capacity—Isosorbide-Based Bis-Epoxides” (Chemical Research in Toxicology, 2023)
# Assays:
# Female CBA/Ca mice = test: murine local lymph node assay (LLNA); assay type: in vivo
# Protocol: Female CBA/Ca mice, 7 to 9 weeks of age, were purchased from NOVA SCB Charles River, Germany. The mice were housed in HEPA-filtered air flow cages and kept on standard laboratory diet and water ad lib. The regional ethics committee, Jordbruksverket, approved the protocol and the procedure was performed in accordance with the guidelines.
# A previously published protocol[24] of the LLNA[34] was used to assess the sensitization potential of the isosorbide bis-epoxides 1–3. The purity of the assessed isosorbide bis-epoxides was >99% (GC/MS or LC/MS) before testing of sensitization potential. The isosorbide bis-epoxides were tested in five different concentrations; 1: 3.9 mM (0.10% w/v), 39 mM (1.0% w/v), 190 mM (5.0% w/v), 390 mM (10% w/v), and 770 mM (20% w/v); 2: 21 mM (1.0% w/v), 54 mM (2.5% w/v), 110 mM (5.0% w/v), 210 mM (10% w/v), and 540 mM (25% w/v); and 3: 2.3 mM (0.10% w/v), 23 mM (1.0% w/v), 110 mM (5.0% w/v), 230 mM (10% w/v), and 460 mM (20% w/v). A detailed description is given in Supporting Information.
# The three isosorbide bis-epoxides were evaluated for sensitization potential in vivo with the murine LLNA (Figure 2). The stimulation index (SI) is defined as the ratio between the dpm/lymph node for the test group and the control group. Test materials that at one or more concentrations cause an SI greater than 3 are considered positive in the LLNA. The estimated concentration required to induce an SI of 3 (EC3) is used to determine the sensitizing potency of the test compound. […] Isosorbide bis-epoxide 1 gave an EC3 value of 0.17 M (4.4%), 3 gave an EC3 value of 0.36 M (16%), and no EC3 value was obtained for 2 (for full results, see the Supporting Information, Table S1).
# A previously published protocol1 of the LLNA2 was used to assess the sensitization potential of the isosorbide bis-epoxides 1-3. The purity of the assessed isosorbide bis-epoxides was >98% according to LC/MS analysis. The isosorbide bis-epoxides were tested in five different concentrations; 1: 3.87 mM […]
# 456 mM (20% w/v). Briefly, mice in groups of three received 25 µL of test compound dissolved in the vehicle acetone/olive oil (4:1 v/v), on the dorsum of the ears for three consecutive days (day 0, 1, and 2). A sixth group of four mice was treated with vehicle only (control group). On day 5, all mice were injected intravenously via the tail vein with 250 µL of phosphate buffered saline (PBS) (pH 7.4, 137 mM NaCl, 2.7 mM KCl, and 10 mM phosphate buffer) containing 20 µCi [methyl-3H]thymidine. Five hours later the mice were sacrificed, the draining lymph nodes were excised and pooled for each group, followed by preparation of single-cell suspensions of lymph nodes in PBS by using cell strainers (Falcon; BD Labware, Franklin Lakes, NJ, USA; pore size, 70 µm). Cell suspensions were washed twice with PBS, precipitated with trichloroacetic acid (TCA) (5%), and stored at 4 °C overnight. The samples were then centrifuged, resuspended in TCA (5%, 1 mL), and transferred to scintillation cocktail (10 mL) (EcoLume INC Radiochemicals, Solon, OH, USA). The incorporation of [methyl-3H]thymidine into DNA was measured by b-scintillation counting with a Beckman LS 6000TA instrument. Results are expressed as the mean dpm/lymph node for each experimental group and as stimulation index (SI). The SI is defined as the ratio between dpm/lymph node for the test group and the control group. Test materials that at one or more concentrations cause an SI greater than 3 are considered positive in the LLNA. EC3 values (the estimated concentration required to induce an SI of 3) were calculated by linear interpolation.
# Results from the Local Lymph Node Assay
# Table S1: Full results from the LLNA of bis-epoxides 1-3a
# Test Test [3H]thymidine SI EC value
# [1] = thermogravimetric analysis (TGA) of polymers formed with TETA; assay type: physicochemical; settings: polymer cured with TETA, TGA under nitrogen
# Protocol: Detailed information on the polymerization procedure and the thermogravimetric analysis (TGA) is given in the Supporting Information.
# Pilot experiments using TGA were conducted to investigate the properties of the polymers formed from isosorbide bis-epoxides 1–3 and the commonly used curing agent TETA (Table 2 and Figure 6). The onset of degradation is described by the initial decomposition temperature (IDT) and is an indication of the thermal stability of the cured epoxy resins. The maximum weight loss rate (Rmax) and the temperature (Tmax) at Rmax were taken from the peak values of the thermograms. The activation energies (Ea) for the decomposition of the polymers were calculated from the thermograms based on the Horowitz–Metzger equation.[43],[44]
# AcPHCKRM = test: peptide depletion with AcPHCKRM; settings: peptide 1 mM, test compound 10 mM, DMSO/phosphate buffer pH 7.4 (1:1), room temperature
# Protocol: Liquid chromatography-mass spectroscopy (LC-MS) analyses of peptide depletion experiments were performed using electrospray ionization (ESI) on a Hewlett-Packard 1100 HPLC/MS (Agilent Technologies, Waldbronn, Germany). The system included a vacuum degasser, a binary pump, an autoinjector, a column thermostat, a diode array detector, and a single quadrupole mass spectrometer. The high-performance liquid chromatography (HPLC) system was equipped with a HyPURITY C18 column (150 × 3 mm i.d., particle size 3 μm, Thermo Hypersil-Keystone, Thermo Electron Corp., Bellafonte, PA, USA). The mobile phase consisted of 0.005% pentafluoropropanoic acid, 0.1% acetic acid, and 5% acetonitrile in water (solvent A) and 0.005% pentafluoropropanoic acid, 0.1% acetic acid, and 50% water in acetonitrile (solvent B). […] The gradient conditions used were as follows: 0-8% B (0-3 min), 8-10% B (3-15 min), 10-100% B (15-18 min), 100% B (18-30 min), 100-0% B (30-30.1 min), 0% B (30.1-40 min). The ESI interface was used in positive ionization mode with the following spray chamber settings: nebulizer pressure, 35 psi; capillary voltage, 3000 V; drying gas temperature, 350 °C; and drying gas flow rate, 12 L/min. The fragmentor voltage was set to 120 V. The mass spectrometer was used in scan mode detecting molecular ions with m/z values ranging from 50 to 1800. All solvents were degassed with argon prior to use.
# [2] = estimated concentration required to induce an SI of 3, linear interpolation
compound,measurement,setting,value
"C1OC1CO[C@H]1CO[C@H]2[C@@H]1OC[C@H]2OCC1CO1 (stereo partly drawn) [Compound 1, (3R,3aR,6S,6aR)-3,6-O-Bis(3,4-epoxypropyl)-1,4:3,6-dianhydro-D-glucitol]",EC3 value (%),Female CBA/Ca mice; as printed in main text,4.4%
same,sensitizing potency classification,Female CBA/Ca mice; classified by EC3,"moderate (EC3 > 2%, moderate)"
same,EC3 value,Female CBA/Ca mice; [2],0.17 M
same,EC3 value (% w/v),Female CBA/Ca mice; [2],4.40 % w/v
same,SI,Female CBA/Ca mice; test concentration 0.10% w/v,0.82
same,[3H]thymidine incorporation (dpm/lymph node),Female CBA/Ca mice; test concentration 0.10% w/v,213 dpm/lymph node
same,SI,Female CBA/Ca mice; test concentration 1.0% w/v,1.41
same,[3H]thymidine incorporation (dpm/lymph node),Female CBA/Ca mice; test concentration 1.0% w/v,367 dpm/lymph node
same,SI,Female CBA/Ca mice; test concentration 5.0% w/v,3.28
same,[3H]thymidine incorporation (dpm/lymph node),Female CBA/Ca mice; test concentration 5.0% w/v,852 dpm/lymph node
same,SI,Female CBA/Ca mice; test concentration 10% w/v,12.2
same,[3H]thymidine incorporation (dpm/lymph node),Female CBA/Ca mice; test concentration 10% w/v,3164 dpm/lymph node
same,SI,Female CBA/Ca mice; test concentration 20% w/v,15.8
same,[3H]thymidine incorporation (dpm/lymph node),Female CBA/Ca mice; test concentration 20% w/v,4121 dpm/lymph node
same,Ea (activation energy for the decomposition of the cured epoxy resins),[1],66.9 kcal/mol
same,IDT (initial decomposition temperature),[1],362 °C
same,Rmax (maximum weight loss rate),[1],–3.24 %/°C
same,Tmax (temperature at the maximum rate of weight loss),[1],380 °C
same,reactivity with the model peptide AcPHCKRM,AcPHCKRM,highest reactivity
